According to ChEMBL document CHEMBL6092221, “Discovery of a Novel Macrocyclic Noncovalent CDK7 Inhibitor for Cancer Therapy” (J Med Chem, 2024):
Values after ≈ are worked out from the molar mass of the structure shown. Each block holds one compound with its values, some of them ahead of it.

Experiments:
[1] = biological target: Cyclin-dependent kinase 7/ cyclin H (Homo sapiens, UniProt P50613); assay: Binding affinity to CDK7/CyclinH (unknown origin) assessed as dissociation constant by SPR assay; format: protein-complex assay
[2] = Clearance in female Balb/c nude mouse at 1 mg/kg, iv; format: ADME, organism-based; conditions: in vivo
[3] = AUC(0 to infinity) in female Balb/c nude mouse at 1 mg/kg, iv; format: ADME, organism-based; conditions: in vivo
[4] = Half life in female Balb/c nude mouse at 10 mg/kg, po; format: ADME, organism-based; conditions: in vivo
[5] = Cmax in female Balb/c nude mouse at 10 mg/kg, po; format: ADME, organism-based; conditions: in vivo
[6] = AUC(0 to infinity) in female Balb/c nude mouse at 10 mg/kg, po; format: ADME, organism-based; conditions: in vivo
[7] = Oral bioavailability in female Balb/c nude mouse at 10 mg/kg; format: ADME, organism-based; conditions: in vivo
[8] = Efflux ratio of permeability in human Caco-2 cells; format: ADME, cell-based
[9] = Metabolic stability in mouse liver microsomes assessed as intrinsic clearance; format: ADME, Microsome; conditions: read-out: CLH
[10] = Volume of distribution at steady state in female Balb/c nude mouse at 1 mg/kg, iv; format: ADME, organism-based; conditions: in vivo, read-out: Vdss
[11] = Permeability in human Caco-2 cells; format: ADME, cell-based; conditions: read-out: permeability
HCC70 [12] = assay: cells; conditions: Homo sapiens, HCC70, 72 h
Description: Antiproliferative activity against human HCC70 cells assessed as inhibition of cell proliferation incubated for 72 hrs by celltiter-glo assay

[13] = Half life in female Balb/c nude mouse at 5 mg/kg, po; format: ADME, organism-based; conditions: in vivo
[14] = Cmax in female Balb/c nude mouse at 5 mg/kg, po; format: ADME, organism-based; conditions: in vivo
[15] = AUC(0 to t) in female Balb/c nude mouse at 5 mg/kg, po; format: ADME, organism-based; conditions: in vivo
[16] = Oral bioavailability in female Balb/c nude mouse at 5 mg/kg; format: ADME, organism-based; conditions: in vivo
OVCAR-3 [17] = assay: cells; conditions: Homo sapiens, OVCAR-3, 72 h
Description: Antiproliferative activity against human OVCAR-3 cells assessed as inhibition of cell proliferation incubated for 72 hrs by celltiter-glo assay

[18] = Half life in mouse at 1 mg/kg, iv; format: ADME, organism-based; conditions: in vivo, iv, 1 mg/kg
[19] = Half life in rat at 1 mg/kg, iv; format: ADME, organism-based; conditions: in vivo
[20] = Half life in dog at 1 mg/kg, iv; format: ADME, organism-based, Canis lupus familiaris; conditions: in vivo
[21] = Half life in dog at 2 mg/kg, po; format: ADME, organism-based, Canis lupus familiaris; conditions: in vivo
[22] = Half life in mouse at 5 mg/kg, po; format: ADME, organism-based; conditions: in vivo
[23] = Clearance in rat at 1 mg/kg, iv; format: ADME, organism-based; conditions: in vivo
[24] = Clearance in dog at 1 mg/kg, iv; format: ADME, organism-based, Canis lupus familiaris; conditions: in vivo
[25] = Volume of distribution at steady state in mouse at 1 mg/kg, iv; format: ADME, organism-based; conditions: in vivo, iv, 1 mg/kg
[26] = Volume of distribution at steady state in rat at 1 mg/kg, iv; format: ADME, organism-based; conditions: in vivo, read-out: Vdss
[27] = Volume of distribution at steady state in dog at 1 mg/kg, iv; format: ADME, organism-based, Canis lupus familiaris; conditions: in vivo, read-out: Vdss
[28] = AUC(0 to t) in mouse at 1 mg/kg, iv; format: ADME, organism-based; conditions: in vivo
[29] = AUC(0 to t) in rat at 1 mg/kg, iv; format: ADME, organism-based; conditions: in vivo
[30] = AUC (0 to t) in dog at 1 mg/kg, iv; format: ADME, organism-based, Canis lupus familiaris; conditions: in vivo
[31] = AUC(0 to t) in mouse at 5 mg/kg, po; format: ADME, organism-based; conditions: in vivo
[32] = AUC(0 to t) in rat at 5 mg/kg, po; format: ADME, organism-based; conditions: in vivo
[33] = AUC(0 to t) in dog at 2 mg/kg, po; format: ADME, organism-based, Canis lupus familiaris; conditions: in vivo
[34] = Cmax in mouse at 5 mg/kg, po; format: ADME, organism-based; conditions: in vivo
[35] = Cmax in rat at 5 mg/kg, po; format: ADME, organism-based; conditions: in vivo
[36] = Cmax in dog at 2 mg/kg, po; format: ADME, organism-based, Canis lupus familiaris; conditions: in vivo
[37] = Oral bioavailability in mouse at 5 mg/kg; format: ADME, organism-based; conditions: in vivo
[38] = Oral bioavailability in rat at 5 mg/kg; format: ADME, organism-based; conditions: in vivo
[39] = Oral bioavailability in dog at 2 mg/kg; format: ADME, organism-based, Canis lupus familiaris; conditions: in vivo
[40] = Drug concentration in rat small intestine at 5 mg/kg, po measured after 0.5 hrs; format: ADME, organism-based; conditions: read-out: Ct
[41] = Drug concentration in rat small intestine at 5 mg/kg, po measured after 2 hrs; format: ADME, organism-based; conditions: read-out: Ct
[42] = Drug concentration in rat small intestine at 5 mg/kg, po measured after 8 hrs; format: ADME, organism-based; conditions: read-out: Ct
[43] = Drug concentration in rat plasma at 5 mg/kg, po measured after 0.5 hrs; format: ADME, organism-based
[44] = Drug concentration in rat plasma at 5 mg/kg, po measured after 2 hrs; format: ADME, organism-based
[45] = Drug concentration in rat plasma at 5 mg/kg, po measured after 8 hrs; format: ADME, organism-based
[46] = Solubility of compound at pH 7.4; format: physicochemical; conditions: buffer
[47] = Plasma protein binding in human assessed as unbound fraction; format: ADME, cell-free
[48] = Plasma protein binding in mouse assessed as unbound fraction; format: ADME, cell-free
[49] = Plasma protein binding in rat assessed as unbound fraction; format: ADME, cell-free
[50] = Metabolic stability in human liver microsomes assessed as intrinsic clearance; format: ADME, Microsome; conditions: read-out: CLH
[51] = Metabolic stability in rat liver microsomes assessed as intrinsic clearance; format: ADME, Microsome; conditions: read-out: CLH
hERG = hERG (Homo sapiens, UniProt Q12809); assay: Inhibition of hERG at 10 uM relative to control; format: toxicity
OVCAR-3 [52] = assay: Antitumor activity against human OVCAR-3 cells xenografted in female Balb/c nude mouse assessed as tumor growth inhibition at 2 mg/kg, po administered once daily and measured on day 22; format: functional; conditions: OVCAR-3, 528 h, time 22 day, read-out: TGI
[53] = Cmax in human OVCAR-3 cells xenografted in female Balb/c nude mouse plasma at 5 mg/kg, po administered once daily; format: ADME, organism-based
[54] = AUC (0 to t) in human OVCAR-3 cells xenografted in female Balb/c nude mouse plasma at 5 mg/kg, po administered once daily; format: ADME, organism-based
HCC70 [55] = assay: Antitumor activity against human HCC70 cells xenografted in female nu/nu mouse assessed as tumor growth inhibition at 1 mg/kg, po administered once daily and measured for 4 weeks; format: functional; conditions: HCC70, 672 h, read-out: TGI
[56] = Cmax in human HCC70 cells xenografted in female nu/nu mouse plasma at 1 mg/kg, po administered once daily; format: ADME, organism-based
[57] = AUC(0 to t) in human HCC70 cells xenografted in female nu/nu mouse plasma at 1 mg/kg, po administered once daily; format: ADME, organism-based
[58] = Toxicity in female nu/nu mouse xenografted with human HCC70 cells assessed as body weight loss at 1 to 10 mg/kg, po administered once daily and measured for 4 weeks; format: organism-based; conditions: in vivo, 672 h, dose 1-10 mg/kg
CDK7/Cyclin H/MNAT1 = CDK7/Cyclin H/MNAT1 (Homo sapiens, UniProt P50613); assay: Inhibition of CDK7/CyclinH/MAT1 (unknown origin) in presence of ATP by kinase activity assay; format: protein-complex assay
Chain of CDK7/Cyclin H/MNAT1 (P51946 whole entry): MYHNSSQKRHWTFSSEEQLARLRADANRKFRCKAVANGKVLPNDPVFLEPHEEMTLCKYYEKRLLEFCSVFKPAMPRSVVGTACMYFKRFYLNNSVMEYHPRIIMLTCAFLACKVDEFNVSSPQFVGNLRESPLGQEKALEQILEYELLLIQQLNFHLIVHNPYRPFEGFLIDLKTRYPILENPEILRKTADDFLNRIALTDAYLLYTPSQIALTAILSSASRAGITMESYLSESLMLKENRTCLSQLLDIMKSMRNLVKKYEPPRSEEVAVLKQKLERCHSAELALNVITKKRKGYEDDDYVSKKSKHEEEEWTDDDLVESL
Chain of CDK7/Cyclin H/MNAT1 (P50613 whole entry): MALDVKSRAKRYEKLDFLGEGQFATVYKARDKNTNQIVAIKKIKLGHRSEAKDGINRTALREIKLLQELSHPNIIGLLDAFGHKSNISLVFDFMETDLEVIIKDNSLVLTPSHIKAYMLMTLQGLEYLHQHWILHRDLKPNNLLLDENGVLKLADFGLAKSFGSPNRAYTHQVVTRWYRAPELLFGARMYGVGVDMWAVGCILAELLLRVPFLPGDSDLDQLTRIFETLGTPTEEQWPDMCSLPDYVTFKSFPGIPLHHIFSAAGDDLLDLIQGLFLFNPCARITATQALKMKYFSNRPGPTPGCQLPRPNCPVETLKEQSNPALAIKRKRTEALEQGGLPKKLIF
Chain of CDK7/Cyclin H/MNAT1 (P51948 whole entry, further chain): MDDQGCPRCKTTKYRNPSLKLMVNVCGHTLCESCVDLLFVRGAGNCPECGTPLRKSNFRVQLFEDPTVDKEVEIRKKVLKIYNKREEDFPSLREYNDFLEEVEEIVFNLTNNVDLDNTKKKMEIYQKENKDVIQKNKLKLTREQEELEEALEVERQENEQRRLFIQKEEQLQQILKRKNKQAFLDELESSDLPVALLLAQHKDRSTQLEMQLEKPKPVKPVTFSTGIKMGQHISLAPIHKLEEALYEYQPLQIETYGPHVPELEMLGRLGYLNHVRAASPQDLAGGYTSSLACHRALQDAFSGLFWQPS

Chain of Cyclin-dependent kinase 7/ cyclin H (P51946 whole entry): as the sequence (P51946 whole entry) above
Chain of Cyclin-dependent kinase 7/ cyclin H (P50613 whole entry): as the sequence (P50613 whole entry) above
Chain of hERG (Q12809 whole entry): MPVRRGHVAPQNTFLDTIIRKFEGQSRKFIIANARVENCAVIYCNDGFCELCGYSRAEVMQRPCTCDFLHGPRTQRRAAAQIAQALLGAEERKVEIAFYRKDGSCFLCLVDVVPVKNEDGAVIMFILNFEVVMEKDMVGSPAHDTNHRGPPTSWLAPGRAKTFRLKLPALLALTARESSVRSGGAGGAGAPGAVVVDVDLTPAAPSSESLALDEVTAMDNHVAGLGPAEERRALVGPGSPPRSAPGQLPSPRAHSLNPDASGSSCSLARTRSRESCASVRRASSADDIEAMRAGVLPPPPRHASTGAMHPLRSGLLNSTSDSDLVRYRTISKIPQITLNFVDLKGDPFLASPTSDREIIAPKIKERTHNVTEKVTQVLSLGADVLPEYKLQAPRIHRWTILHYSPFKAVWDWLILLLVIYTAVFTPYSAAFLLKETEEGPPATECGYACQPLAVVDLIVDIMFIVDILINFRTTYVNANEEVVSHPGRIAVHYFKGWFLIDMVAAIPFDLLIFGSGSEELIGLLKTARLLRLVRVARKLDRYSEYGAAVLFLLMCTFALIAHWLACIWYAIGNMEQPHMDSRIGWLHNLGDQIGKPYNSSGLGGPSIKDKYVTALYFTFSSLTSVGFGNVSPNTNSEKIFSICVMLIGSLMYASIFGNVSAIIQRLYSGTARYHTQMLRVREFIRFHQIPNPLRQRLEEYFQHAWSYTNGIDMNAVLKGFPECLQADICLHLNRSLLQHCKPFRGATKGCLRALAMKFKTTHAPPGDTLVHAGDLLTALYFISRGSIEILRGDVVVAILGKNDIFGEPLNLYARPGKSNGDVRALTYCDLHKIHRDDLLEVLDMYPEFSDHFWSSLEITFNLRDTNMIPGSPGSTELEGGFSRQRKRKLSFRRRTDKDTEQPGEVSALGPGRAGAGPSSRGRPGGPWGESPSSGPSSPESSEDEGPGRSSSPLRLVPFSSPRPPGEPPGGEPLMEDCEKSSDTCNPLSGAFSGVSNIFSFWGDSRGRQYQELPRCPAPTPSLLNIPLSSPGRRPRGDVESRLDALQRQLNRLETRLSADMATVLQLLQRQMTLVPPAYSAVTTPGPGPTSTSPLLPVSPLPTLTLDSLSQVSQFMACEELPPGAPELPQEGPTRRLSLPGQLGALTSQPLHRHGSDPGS

Kd [1]: 0.06 nM
clearance [2]: 95.9 mL/min/kg
AUC(0-inf) [3]: 163 ng·h/mL
half-life [4]: 2 h
Cmax [5]: 89.4 ng/mL
AUC(0-inf) [6]: 412 ng·h/mL
bioavailability [7]: 22.8%
efflux ratio [8]: > 35.8
CLint scaled [9]: < 13.4 mL/min/kg
Vd [10]: 12 L/kg
Papp [11]: < 0.48 ×10⁻⁶ cm/s
SMILES: CP(C)(=O)c1c2ccc3c(c[nH]c13)-c1nc(ncc1C(F)(F)F)N[C@H]1CC[C@@H](C1)NCCOCCNC2=O
IC50 (HCC70 [12]): 29 nM

clearance [2]: 41.3 mL/min/kg
efflux ratio [8]: 32.5
Vd [10]: 1.5 L/kg
Papp [11]: 0.39 ×10⁻⁶ cm/s
half-life [13]: 1.5 h
Cmax [14]: 268 ng/mL
AUC(0-t) [15]: 572 ng·h/mL
bioavailability [16]: 28.4%
IC50 (OVCAR-3 [17]): 241 nM
SMILES: CN1CCOCCN(C)[C@H]2CC[C@@H](C2)Nc2ncc(C(F)(F)F)c(n2)-c2c[nH]c3c(P(C)(C)=O)c(ccc23)C1=O
IC50 (HCC70 [12]): 56.1 nM

Kd [1]: 0.12 nM
clearance [2]: 55.3 mL/min/kg
efflux ratio [8]: 11.2
Vd [10]: 3.6 L/kg
Papp [11]: 1.91 ×10⁻⁶ cm/s
half-life [13]: 2.4 h
Cmax [14]: 170 ng/mL
AUC(0-t) [15]: 365 ng·h/mL
bioavailability [16]: 24.3%
IC50 (OVCAR-3 [17]): 59.1 nM
SMILES: CN1C[C@@H](F)CCN(C)[C@H]2CC[C@@H](C2)Nc2ncc(C(F)(F)F)c(n2)-c2c[nH]c3c(P(C)(C)=O)c(ccc23)C1=O
IC50 (HCC70 [12]): 66.5 nM

Further lines, the compound ahead of its results:

SMILES: CP(C)(=O)c1c2ccc3c(c[nH]c13)-c1nc(ncc1C(F)(F)F)N[C@H]1CC[C@@H](C1)NCCCCCCNC2=O
IC50 (HCC70 [12]): 422 nM

SMILES: CC1(C)CC[C@H](Nc2ncc(C(F)(F)F)c(-c3c[nH]c4c(P(C)(C)=O)c(C#N)ccc34)n2)CN1 [SY-5609]
CLint scaled [9]: < 26.7 mL/min/kg
Papp [11]: 2.54 ×10⁻⁶ cm/s
t1/2 [18]: 0.6 h
half-life [19]: 3.2 h
half-life [20]: 6.9 h
half-life [21]: 6.6 h
half-life [22]: 2.7 h
clearance [23]: 67.5 mL/min/kg
clearance [24]: 14.5 mL/min/kg
Vdss [25]: 5.9 L/kg
Vd [26]: 16.9 L/kg
Vd [27]: 7.6 L/kg
AUC(0-t) [28]: 406 ng·h/mL
AUC(0-t) [29]: 247 ng·h/mL
AUC(0-t) [30]: 1110 ng·h/mL
AUC(0-t) [31]: 1920 ng·h/mL
AUC(0-t) [32]: 920 ng·h/mL
AUC(0-t) [33]: 1460 ng·h/mL
Cmax [34]: 339 ng/mL
Cmax [35]: 76 ng/mL
Cmax [36]: 123 ng/mL
bioavailability [37]: 94.3%
bioavailability [38]: 89.7%
bioavailability [39]: 65.8%
concentration at 0.5 h [40]: 2500 ng/g
concentration at 2 h [41]: 5030 ng/g
concentration at 8 h [42]: 842 ng/g
concentration at 0.5 h [43]: 13.4 ng/mL
concentration at 2 h [44]: 69.3 ng/mL
concentration at 8 h [45]: 43.1 ng/mL
solubility [46]: 172 µg/mL (≈ 351 µM)
fraction unbound [47]: 0.142
fraction unbound [48]: 0.065
fraction unbound [49]: 0.163
CLint scaled [50]: 7.2 mL/min/kg
CLint scaled [51]: 4.3 mL/min/kg
inhibition at 10 µM (hERG): 37.1%
inhibition in vivo at 2 mg/kg (OVCAR-3 [52]): 110%
Cmax [53]: 80 ng/mL
AUC(0-t) [54]: 387 ng·h/mL
inhibition in vivo at 1 mg/kg (HCC70 [55]): 48.8%
Cmax [56]: 33.5 ng/mL
AUC(0-t) [57]: 138 ng·h/mL
Activity [58]: Non-toxic
IC50 (HCC70 [12]): 72 nM

SMILES: O=C1NCCOCCN2CC[C@@H](C2)Nc2ncc(C(F)(F)F)c(n2)-c2c[nH]c3cc1ccc23
IC50 (CDK7/Cyclin H/MNAT1): 11 nM
IC50 (HCC70 [12]): 1820 nM
